Results on four compounds are retold here after patent publication US6620911B1, “Anti-cryptococcal peptides” (Arizona Board of Regents, acting for and on behalf of …, priority 1998, dated 2003).

≈ marks a conversion by molar mass, not a printed value. A value given as a limit tells only on which side of the number the result lay.

In one assay the test system is Candida albicans. The assay is described as follows: Disk diffusion susceptibility testing. Conditions: ATCC 90028. The format is cell-based. As to the method:
(§1) Antimicrobial activity was assayed by disk susceptibility tests according to the NCCLS (National Committee for Clinical Laboratory Standards, Performance Standards for Antimicrobial Disk Susceptibility Tests-Sixth Edition: Approved standard M2-A6, NCCLS, Wayne, Pa., 1997). Inocula were adjusted to a density of 0.10 at 625 nm in SDA broth, and spread on SDA plates. Excess moisture was allowed to absorb for 10 min before applying dried disks containing two-fold dilutions of the drugs. Test plates were incubated at 35° C. (25° C. for C. albidus and C. laurentii), and zones of inhibition recorded after 48 h. The minimum inhibitory concentration (MIC) was defined as the lowest concentration of drug resulting in a clear zone of growth inhibition. Disk susceptibility testing of Staphylococcus aureus, Enterococcus faecalis, Escherichia coli and Neisseria gonorrhoeae was also performed.
Background: A growth-free zone around the sample is the usual read-out of agar diffusion tests.

The subject of a further assay is Candida glabrata. The assay is described as follows: Disk diffusion susceptibility testing. Type of assay: cell-based. The note with it: ATCC 90030. As to the method: as §1
The subject of assay [1] is Cryptococcus neoformans. The assay is described as follows: Disk diffusion susceptibility testing. Type of assay: cell-based. Conditions: ATCC 90112. The protocol: as §1
Assay [2] concerns Cryptococcus neoformans. Kind of assay: Broth macrodilution assay (MIC, MFC), ATCC strains. Type of assay: cell-based. Conditions: C. neoformans #14116. As to the method: (§2) Dolastatin 10 and modifications were screened against yeasts by the broth macrodilution assay according to the NCCLS (National Committee for Clinical Laboratory Standards, Reference Method for Broth Dilution Antifungal Susceptibility Testing of Yeasts: Approved Standard M27-A, NCCLS, Wayne, Pa., 1997). Yeasts were suspended and diluted as recommended to yield final inocula ranging from 0.5-2.5×10^3 colony forming units (CFU)/ml. Tests were performed in sterile 12×75 mm plastic tubes containing two-fold dilutions of the peptides in 0.165 M morpholinepropanesulfonic acid (MOPS)-buffered RPMI 1640 medium (pH 7.0). One tube was left drug-free for a turbidity control. Tubes were incubated without agitation at 35° C. (25° C. for C. albidus and C. laurentii). MICs were determined after 72 h for Cryptococcus, and after
(§3) 48 h for other yeast genera. The MIC was defined as the lowest concentration of compound that inhibited all visible growth of the test organism.
(§4) Minimum fungicidal concentrations (MFCs) were determined by subculturing 0.1 ml from each tube with no visible growth in the MIC broth macrodilution series onto drug-free SDA plates. The plates were incubated at 35° C. for 48 h for Cryptococcus (25° C. for C. alhidus and C. laurentii), and 35° C. for 24 h for all other yeast and filamentous fungi.

The next assay has as its system Cryptococcus albidus. Kind of assay: Disk diffusion susceptibility testing. The format is cell-based. The note with it: ATCC 66030. As to the method:
as §1

Another assay concerns Cryptococcus laurentii. The assay is described as follows: Disk diffusion susceptibility testing. The format is cell-based. Conditions: ATCC 66036. The protocol:
as §1

Assay [3] has as its system clinical isolates of C. neoformans. Kind of assay: Broth macrodilution (MIC, MFC), 19 clinical isolates. The format is cell-based, Cryptococcus neoformans.
Text: Clinical isolates of C. neoformans were obtained from patient cerebrospinal fluid, blood, bone marrow, sputum, bronchial lavage and wound infections at the University of Virginia Medical Center, Strains clinically resistant to fluconazole (See: Jessup, C. J. et al, 1997; Poster #F-88, 37th ICAAC, Toronto, Canada) were provided by the Center for Medical Mycology, Case Western Reserve University. Yeast strains (except for C. albidus and C. laurentii) were maintained by single colony transfer on Sabouraud Dextrose Agar (SDA), pH 5.6 at 35° C. Cryptococcus albidus, C. laurentii and C. uniguttulatus (#66033) were maintained on SDA, pH 6.6 at 25° C., C. uniguttulatus (#34143) and C. ater on Yeast Morphology (YM) agar at 25° C. and filamentous fungi were maintained on Potato Dextrose Agar (PDA) slants at 35° C.
as §2, §3, §4

Assay [4] relates to Cryptococcus neoformans #90112. The assay is described as follows: Effect of host factors (pH, human serum) on broth macrodilution MICs and MFCs. The note with it: acidified RPMI. Type of assay: cell-based. The protocol:
as §2, §3, §4
Broth macrodilution assays were performed with RPMI prepared at pH 5, pH 6 and pH 7, and in RPMI, with and without 50% normal human serum (Lampire Biological Labs). Cryptococcus neoformans #90112 was used in each case.

Another assay concerns C. neoformans (#90112). Kind of assay: Killing kinetics. The format is cell-based, Cryptococcus neoformans. Conditions: 1x, 4x, 8x MIC, FIG. 2. As to the method:
Overnight cultures of C. neoformans (#90112) in Ph 7.0 MOPS-buffered RPMI 1640 medium were inoculated into the same medium containing multiples of the broth macrodilution MIC of the antifungal peptides, or an equivalent volume of DMSO. Cultures were shaken at 35° C., and aliquots aseptically removed at various times for dilution plating.

Take `CCC(C)C(C(CC(=O)N1CCC[C@H]1C(OC)C(C)C(=O)NC(Cc1ccccc1)C(=O)Nc1nc(SC)ns1)OC)N(C)C(=O)[C@@H](NC(=O)[C@H](C(C)C)N(C)C)C(C)C` (stereo partly drawn) [1c]: the MIC is reported as greater than 100 μg/disk against Candida albicans, greater than 100 μg/disk in the assay with Candida glabrata and 1.56-3.12 μg/disk against Cryptococcus neoformans [1]. Besides, in the assay with Cryptococcus neoformans [2], the “MFC relative to MIC” value is listed as “sixteenfold greater than MICs”.

As to `CCC(C)C(C(CC(=O)N1CCC[C@H]1C(OC)C(C)C(=O)NC(CCSC)C(=O)Nc1cnc2ccccc2c1)OC)N(C)C(=O)[C@@H](NC(=O)[C@H](C(C)C)N(C)C)C(C)C` (stereo partly drawn) [1e], the figures for the MIC against Candida albicans and in the assay on Cryptococcus neoformans [1] were greater than 100 μg/disk and 25-50 μg/disk, respectively.

As for `CCC(C)C(C(CC(=O)N1CCC[C@H]1C(OC)C(C)C(=O)NC(Cc1ccccc1)C(=O)Nc1nnc(-c2ccccc2)s1)OC)N(C)C(=O)[C@@H](NC(=O)[C@H](C(C)C)N(C)C)C(C)C` (stereo partly drawn) [1b], the MIC against Candida albicans was greater than 100 μg/disk; against Candida glabrata, greater than 100 μg/disk; in the assay with Cryptococcus albidus it was greater than 100 μg/disk; against Cryptococcus laurentii, greater than 100 μg/disk; against Cryptococcus neoformans [1] it was 3.12-6.25 μg/disk. In the assay with Cryptococcus neoformans [2], the “MFC relative to MIC” value is “sixteenfold greater than MICs”.

With `CCC(C)C(C(CC(=O)N1CCC[C@H]1C(OC)C(C)C(=O)NC(Cc1ccccc1)C(=O)OC)OC)N(C)C(=O)[C@@H](NC(=O)[C@H](C(C)C)N(C)C)C(C)C` (stereo partly drawn) [1d], the MIC against Candida albicans is greater than 100 μg/disk. In the assay with Cryptococcus albidus, this compound registered an MIC greater than 100 μg/disk. This compound yielded an MIC in the assay on Cryptococcus laurentii greater than 100 μg/disk. Moreover, the MIC against Cryptococcus neoformans [1] is 3.12-6.25 μg/disk. Moreover, in assay [3] (19 clinical isolates), the MFC50 was 0.39 µg/mL (≈ 0.513 µM), the MFC90 is 0.78 µg/mL (≈ 1.03 µM), the “MIC50 (MIC at which 50% of the isolates were inhibited)” value came out at 0.195 µg/mL and the “MIC90 (MIC at which 90% of the isolates were inhibited)” value was found to be 0.39 µg/mL. Further, in assay [3] (19 clinical isolates), the “clinical isolate MFCs, range” value is 0.0975 to 6.24 µg/mL; the “share of clinical isolates with MFC/MIC ratio equal to 4” value is 26%; the “share of clinical isolates with MFC/MIC ratio less than or equal to 2” value was “more than 68%”. In addition, the resistant clinical isolates result in [3] (19 clinical isolates (not fluconazole-resistant strains)) was “No resistant clinical isolates were found”. The “recovery: MFCs after the recommended incubation period compared with one week later” value in assay [3] (clinical isolates) is reported as “no evidence of recovery”. Moreover, in assay [4], the “effect of lowered pH on anticryptococcal activity” value was “least affected by lowered pH”. The “fungicidal action, reductions in CFUs” value in the assay on C. neoformans (#90112) is recorded as “most dramatic reductions in CFUs”.
